Experimental data from PMC11575542 (Chemical Science, 2024).

Key:
[1] = molecular target: FabF (ketosynthase) (Escherichia coli, UniProt P0AAI5); format: binding
[2] = molecular target: FabB (ketosynthase) (Escherichia coli, UniProt P0A953); format: binding
Sequence of FabB (ketosynthase) (P0A953 whole entry): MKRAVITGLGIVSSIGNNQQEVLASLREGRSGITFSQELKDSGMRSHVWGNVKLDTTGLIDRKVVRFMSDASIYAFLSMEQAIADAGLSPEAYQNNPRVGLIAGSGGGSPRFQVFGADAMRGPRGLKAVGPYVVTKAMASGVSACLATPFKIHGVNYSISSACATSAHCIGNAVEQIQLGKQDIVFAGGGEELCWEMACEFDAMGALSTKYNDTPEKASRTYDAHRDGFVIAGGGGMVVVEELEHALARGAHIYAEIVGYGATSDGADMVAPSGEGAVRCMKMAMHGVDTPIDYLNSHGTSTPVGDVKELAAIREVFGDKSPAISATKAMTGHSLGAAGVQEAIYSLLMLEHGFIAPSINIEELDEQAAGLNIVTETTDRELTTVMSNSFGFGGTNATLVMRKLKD
Sequence of FabB (ketosynthase) (P0A6A8 2-78 partner): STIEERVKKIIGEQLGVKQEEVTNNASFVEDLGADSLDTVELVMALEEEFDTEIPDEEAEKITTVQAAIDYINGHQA

Sequence of FabF (ketosynthase) (P0AAI5 2-413): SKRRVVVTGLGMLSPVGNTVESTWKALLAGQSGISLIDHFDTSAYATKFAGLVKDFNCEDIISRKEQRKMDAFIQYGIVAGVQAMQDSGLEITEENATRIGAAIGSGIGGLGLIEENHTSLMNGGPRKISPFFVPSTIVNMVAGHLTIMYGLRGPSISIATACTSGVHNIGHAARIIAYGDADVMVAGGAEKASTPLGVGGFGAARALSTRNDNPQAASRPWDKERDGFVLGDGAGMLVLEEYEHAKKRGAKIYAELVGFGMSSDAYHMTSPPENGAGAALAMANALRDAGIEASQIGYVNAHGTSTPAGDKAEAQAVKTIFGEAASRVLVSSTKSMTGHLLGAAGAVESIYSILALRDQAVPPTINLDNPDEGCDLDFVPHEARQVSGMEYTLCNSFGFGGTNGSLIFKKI
Sequence of FabF (ketosynthase) (P0A6A8 2-78 partner): as the sequence (P0A6A8 2-78 partner) above

IC50 [1]: ~21.1 µM | IC50 [2]: ~22.5 µM
SMILES: C/C=C/C/C=C/CCC(=O)[C@H]1O[C@H]1C(N)=O [cerulenin]
